From patent US12286442B2, “Methods and materials for increasing transcription factor eb polypeptide levels” (University of Pittsburgh—Of the Commonwealth System of …, priority 2019, dated 2025)

What was measured:
TFEB = assay: High content screen measuring TFEB nuclear accumulation (TFEB nuclear/cytosol ratio) in BEAS-2B cells stably expressing TFEB-EGFP; assay type: cell-based, human; conditions: 18 hours incubation
Procedure: FIG. 3. High content screen assay (384 well) measuring TFEB nuclear accumulation. Approximately 2500 primary and immortalized human bronchial epithelial cells (BEAS-2B) stably expressing TFEB-EGFP in 25 μL of HITEs media with 10% FBS were dispensed into 384 well plate (Black with glass bottom) and incubated for 8 hours. Compound serial dilution (DMEM low glucose media with 2% FBS, 25 μL volume) were prepared using a robotic liquid hander. Compound solutions were then added to the cell plate and incubated for 18 hours. Cells were then fixed with 4% PFA followed by DAPI staining. TFEB localization was imaged on the GFP channel along with the DAPI signal using a Cytation 5 high content imager. Images were processed through Biotek Gen5 software; specifically, the DAPI signal was used as the primary mask to quantify the nuclear TFEB-GFP signal. The cytosolic TFEB-GFP signal was quantified through expanding the primary mask. The TFEB nuclear/cytosol ratios were calculated from nuclear TFEB-GFP signal/cytosol TFEB-GFP signal, which determined the compound efficacy. […] Compound activities (μM) were determined by the minimal compound concentration needed to increase TFEB nuclear/cytosol ratio by 25%. Activity: “−” equals >25 μM; “+” equals between 25 μM and >10 μM; “++” equals between ≤10 μM and >1 μM; and “+++” equals […]. N=4.
(§1) Approximately 2300 primary and immortalized human bronchial epithelial cells (BEAS-2B) stably expressing TFEB-EGFP in 25 μL of HITEs media with 10% FBS were dispensed into 384 well plate (Black with glass bottom) and incubated for 8 hours. Compound serial dilution (DMEM low glucose media with 2% FBS, 25 μL volume) were prepared using a robotic liquid hander. Compound solution were then added to the cell plate and incubated for 18 hours. Cells were then fixed with 4% PFA followed by DAPI staining. TFEB localization was imaged on the GFP channel along with the DAPI signal using a Cytation 5 high content imager. Images were processed through Biotek Gen5 software. Specifically, the DAPI signal was used as the primary mask to quantify the nuclear TFEB-GFP signal. Cytosolic TFEB-GFP signal was quantified through expanding the primary mask. The TFEB nuclear/cytosol ratios were calculated from nuclear TFEB-GFP signal/cytosol TFEB-GFP signal, which determined the compound efficacies.
Compounds efficacies (μM) were determined by the minimal compound concentration needed to increase TFEB nuclear/cytosol ratio by 25%. Activity: “+” equals >25 μM; “++” equals between ≤25 μM and >1 μM; and “+++” equals ≤1 μM.
A high-content imaging screen was conducted using Beas2B cells that stably express GFP-TFEB.

BEAS-2B cells = assay: Toxicity: compound concentration needed to induce greater than 50 percent of cell loss; assay type: cell-based, human; conditions: 18 hours incubation
Procedure: as §1
Toxicity was determined by determining the compound concentration needed to induce greater than 50 percent of cell loss. For toxicity, cell loss of greater than 50 percent at a concentration that equals or is greater than 25 μM was represented as cell loss of greater than 50 percent at a concentration less than 25 μM and greater than 1 μM was represented as and cell loss of greater than 50 percent at a concentration that equals or is less than 1 μM was represented as “+++.” The assay results for compounds 1-202, 214-248, 332, 333, and 352-402 are shown in Table A.

SMILES | efficacy (minimal compound concentration needed to increase TFEB nuclear/cytosol ratio by 25%) (TFEB) | toxicity (compound concentration needed to induce greater than 50 percent of cell loss) (BEAS-2B cells)
c1ccc2c(Nc3ccc4nccnc4c3)nc(-c3ccncc3)nc2c1 [Compound 103] | +++ (“+++” equals ≤1 μM) | + (cell loss of greater than 50 percent at a concentration that equals or is greater than 25 μM was represented as)
c1cc(-c2nc(Nc3ccc4ncsc4c3)c3cnccc3n2)ccn1 [Compound 122] | + (“+” equals >25 μM) | + (cell loss of greater than 50 percent at a concentration that equals or is greater than 25 μM was represented as)
c1cnc2nc(-c3ccncc3)nc(Nc3ccc4nc(C5CC5)sc4c3)c2c1 [Compound 131] | +++ (“+++” equals ≤1 μM) | + (cell loss of greater than 50 percent at a concentration that equals or is greater than 25 μM was represented as)
Cc1cc(C)cc(-n2c(=O)c3ccccc3n(CC(=O)Nc3c(C)cc(C)cc3C)c2=O)c1 [Compound 223] | + (“+” equals >25 μM) | + (cell loss of greater than 50 percent at a concentration that equals or is greater than 25 μM was represented as)
c1ccc2c(Nc3ccc4[nH]ncc4c3)nc(-c3cc[nH]c3)nc2c1 [Compound 89] | ++ (“++” equals between ≤25 μM and >1 μM) | ++ (cell loss of greater than 50 percent at a concentration less than 25 μM and greater than 1 μM was represented as)
c1cc(-c2nc(Nc3ccc4[nH]ncc4c3)c3cnccc3n2)ccn1 [Compound 85] | +++ (“+++” equals ≤1 μM) | + (cell loss of greater than 50 percent at a concentration that equals or is greater than 25 μM was represented as)
c1ccc2c(Nc3ccc4[nH]ccc4c3)nc(-c3cc[nH]c3)nc2c1 [Compound 104] | +++ (“+++” equals ≤1 μM) | + (cell loss of greater than 50 percent at a concentration that equals or is greater than 25 μM was represented as)
c1cnc2cc(-c3ccncc3)nc(Nc3ccc4nc(C5CCC5)sc4c3)c2c1 [Compound 402] | +++ (“+++” equals ≤1 μM) | + (cell loss of greater than 50 percent at a concentration that equals or is greater than 25 μM was represented as)
Cc1nc2cc(Nc3nc(-c4ccncc4)nc4ccccc34)ccc2s1 [Compound 95] | + (“+” equals >25 μM) | + (cell loss of greater than 50 percent at a concentration that equals or is greater than 25 μM was represented as)
CCc1ccc(-n2c(=O)c3ccc(C(=O)NCCc4ccccc4)cc3n(Cc3ccccc3C#N)c2=O)cc1 [Compound 231] | ++ (“++” equals between ≤25 μM and >1 μM) | + (cell loss of greater than 50 percent at a concentration that equals or is greater than 25 μM was represented as)
Cc1ccc(-c2nc(Nc3cccc(F)c3)c3ccccc3n2)cc1 [Compound 159] | + (“+” equals >25 μM) | + (cell loss of greater than 50 percent at a concentration that equals or is greater than 25 μM was represented as)
COc1ccc2nc(-c3ccncc3)nc(Nc3ccc4nc(C(C)C)sc4c3)c2c1 [Compound 353] | ++ (“++” equals between ≤25 μM and >1 μM) | + (cell loss of greater than 50 percent at a concentration that equals or is greater than 25 μM was represented as)
CS(=O)(=O)CCCNc1nc(-c2ccncc2)nc2ccccc12 [Compound 172] | + (“+” equals >25 μM) | + (cell loss of greater than 50 percent at a concentration that equals or is greater than 25 μM was represented as)
Cc1nc2ccc(Nc3nc(-c4ccncc4)cc4ncccc34)cc2s1 [Compound 400] | +++ (“+++” equals ≤1 μM) | + (cell loss of greater than 50 percent at a concentration that equals or is greater than 25 μM was represented as)
CCc1nc2ccc(Nc3nc(-c4ccncc4)nc4cc(OC)ccc34)cc2s1 [Compound 150] | +++ (“+++” equals ≤1 μM) | ++ (cell loss of greater than 50 percent at a concentration less than 25 μM and greater than 1 μM was represented as)
c1cnc2nc(-c3ccncc3)nc(Nc3ccc4cn[nH]c4c3)c2c1 [Compound 135] | ++ (“++” equals between ≤25 μM and >1 μM) | + (cell loss of greater than 50 percent at a concentration that equals or is greater than 25 μM was represented as)
Cn1cnc2ccc(Nc3nc(-c4ccncc4)nc4ccccc34)cc21 [Compound 141] | +++ (“+++” equals ≤1 μM) | ++ (cell loss of greater than 50 percent at a concentration less than 25 μM and greater than 1 μM was represented as)
Fc1cccc(Cc2nc(-c3ccncc3)nc3ccccc23)c1 [Compound 7] | + (“+” equals >25 μM) | + (cell loss of greater than 50 percent at a concentration that equals or is greater than 25 μM was represented as)
Cc1cc(F)cc(Nc2nc(-c3ccncc3)nc3ccccc23)c1 [Compound 1] | +++ (“+++” equals ≤1 μM) | + (cell loss of greater than 50 percent at a concentration that equals or is greater than 25 μM was represented as)
Cc1cccc2c(Nc3cc(F)c4[nH]ccc4c3)nc(-c3ccncc3)nc12 [Compound 156] | +++ (“+++” equals ≤1 μM) | + (cell loss of greater than 50 percent at a concentration that equals or is greater than 25 μM was represented as)
c1ccc2c(Nc3ccc4[nH]nnc4c3)nc(-c3cncs3)nc2c1 [Compound 387] | + (“+” equals >25 μM) | + (cell loss of greater than 50 percent at a concentration that equals or is greater than 25 μM was represented as)
Fc1cccc(Nc2nc(-c3cncs3)nc3ccccc23)c1 [Compound 79] | + (“+” equals >25 μM) | + (cell loss of greater than 50 percent at a concentration that equals or is greater than 25 μM was represented as)
C=CCn1c(=O)c2ccc(C(=O)NCc3ccccc3)cc2n(Cc2ccc(C)cc2)c1=O [Compound 233] | + (“+” equals >25 μM) | + (cell loss of greater than 50 percent at a concentration that equals or is greater than 25 μM was represented as)
